Measured values taken from PubChem BioAssay (NCI).
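Growth conditions: 96-well plates. Treatment: test compound, 48 hours, 5 concentrations. Analysis: linear interpolation between bracketing concentrations; unreached endpoints set to highest concentration. Abbreviation: GI50, concentration required for 50% inhibition of growth. Definition used: TGI = concentration required for complete inhibition of growth.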

Legend:
Test in all cases: NCI-60 cell line screen, 48 h
[1] = tested on: CCRF-CEM leukemia
[2] = tested on: SNB-75 CNS
[3] = tested on: HOP-62 NSCLC
[4] = tested on: SF-295 CNS
[5] = tested on: A498 renal
[6] = tested on: SW-620 colon
[7] = tested on: SF-268 CNS
[8] = tested on: MOLT-4 leukemia
[9] = tested on: OVCAR-4 ovarian
[10] = tested on: HS 578T breast

Compound	TGI [1] [µM]	TGI [2] [µM]	TGI [3] [µM]	TGI [4] [µM]	TGI [5] [µM]	TGI [6] [µM]	TGI [7] [µM]	TGI [8] [µM]	TGI [9] [µM]	GI50 [1] [µM]	GI50 [2] [µM]	GI50 [3] [µM]	GI50 [4] [µM]	GI50 [6] [µM]	GI50 [7] [µM]	GI50 [10] [µM]	TGI [10] [µM]	GI50 [8] [µM]	GI50 [9] [µM]	GI50 [5] [µM]
CCOC(=O)CNC(SC)=C(C#N)C#N	> 100	> 100	> 100	> 100	> 100	> 100	> 100	> 100	> 100											
CC1(C)CCc2cc3c(cc2O1)OC(C)(C)C1c2c(ccc4c2CCC(C)(C)O4)OC31 (stereo unspecified)	> 100		> 100	> 100		> 100	> 100	> 100	> 100											
Cc1cc(C)cc(Nc2nccc(-c3c(-c4ccc(F)cc4)ncn3C3CCNCC3)n2)c1	5.97	5.24	3.95	3.58		3.07	3.96	5.32	3.46	1.92	1.25	2.04	1.85	1.44	1.48	1.96	4.36	2.03	1.49	
COc1cc(C/C=C/c2ccccc2)c(OC)cc1O	52.3	77.6			> 100	43.3	59.4	52.8	51.3								90			
Cn1cc2ccccc2c1-c1nc(F)nc(Oc2ccc3c(c2)CC[C@@H]2C3CC[C@]3(C)C(O)CCC23)n1 (stereo partly specified)	36.5	28.6	33	30.2		43.5	35.1	65.7	28.5											
CCC[CH2][Sn]1([CH2]CCC)[O]C(=O)C[S]1	1.57	3.27	18	13		3.13	4.83	5.46	4.67	0.324	1.35	6.86	3.61	0.984	1.67			1.39	2.16	
CC(C)C(/C=C/c1ccccc1)=N\NC(=O)N/N=C(/C=C/c1ccccc1)C(C)C	> 100	92.5	> 100	> 100		> 100	> 100	54.3	> 100											
O=C(c1ccc(O)cc1)c1ccc(C(=O)c2ccc(O)cc2)cc1		56.2	46.7	> 100	> 100	> 100	> 100	> 100	> 100		22.5	18	6.06	> 100	26.6	27.4	> 100	> 100	> 100	> 100
COc1ccc(CNc2nc3ccccc3nc2-c2cccs2)cc1OC	> 100		> 100	> 100		> 100	> 100	> 100												
O=C1C2Cc3ccccc3CN2C(=O)N1CN1CCN(CN2C(=O)C3Cc4ccccc4CN3C2=O)CC1 (stereo unspecified)	> 100	> 100	> 100	> 100	> 100	> 100	> 100	> 100												
